Tested on: human epidermal keratinocytes
Assay: 3H-2-deoxyglucose uptake in epidermal keratinocytes
Type: cell-based
Settings: for action of promoting epidermal keratinocytic glucose uptake (qualitative): FIG. 1; for promotion effect relative to that of adenosine at the same concentration: p<0.05
Description: The influence of purine base on glucose uptake in epidermal keratinocytes was examined using adenosine 5′-phosphate-2Na (AMP-2Na), adenosine and inosine as test compounds. As a control, the experiment was carried out in a similar manner without using the test compound.
Human epidermal keratinocyates (normal human neonatal foreskin epidermal keratinocytes, “Epidercell NHEK(F)”, product of Kurabo industries, Ltd.) were initially cultured in a 10-cm petri dish and stored in a frozen state until use. At the time of use, the cryopreserved cells were cultured on a 24-well plate for about 6 to 7 days and subjected to this experiment when the cells were 70-80% confluent.
A glucose-free medium was prepared by adding to a serum-free medium for the growth of epidermal keratinocytes (“HuMedia-KG2”, special ordered medium, product of Kurabo Industries, Ltd.) 1 ml of calcium solution and 0.1 ml of phenol red packaged with the medium product. Bovine serum albumin (BSA) treated with activated carbon to remove impurities was added to the medium to become a concentration of 1% and the medium was adjusted to pH 7.4 with NaOH.
1 ml of 10 mM 2-deoxyglucose, 60 μl of 250 μCi/250 μl ^3H-2-deoxyglucose and 940 μl of 1% BSA/glucose-free medium (pH 7.4) were mixed.
Epidermal keratinocytes cultured in a 24-well plate were washed with PBS(−) (Ca^2+ and Mg^2+ free phosphate buffered saline) three times. After addition of serum-free medium for the growth of epidermal keratinocytes (“HuMedia-KG2”, special ordered medium, product of Kurabo Industries, Ltd.), the cells were cultured for 2 hours and then washed with PBS(−) three times. After addition of 1 ml of 1% BSA/glucose-free medium (pH 7.4) in which the test compound was dissolved, the cells were cultured for 30 minutes and then 20 μl of ^3H-2-deoxyglucose solution was added per ml of the medium. The cells were allowed to stand for 10 minutes and then washed with ice-cooled glucose-containing PBS(−) three times. After addition of 0.5 ml of 0.1N NaOH containing 0.1% SDS, the cells ware allowed to stand in a static condition for at least 2 hours to produce a cell lysate solution. 0.5 ml of 0.11N HCl containing 0.1% SDS was added to acidify the cell lysis solution. 80 μl of the cell lysate solution was used for protein assay (“DC Protein Assay”, product of Bio-Rad), and 750 μl of the same was placed into a glass bottle. 20 ml of a liquid scintillation cocktail (ACS-II, product of Amersham) was added. After gently stirring the mixture, radioactivity was assayed using the liquid scintillation counter. The radioactivity per unit amount of protein was determined from the measured radioactivity and the amount of ^3H-2-deoxyglucose uptake (H-DPM (μg)/μg protein) was calculated by subtracting the radioactivity due to non-specific 3H-2-deoxyglucose uptake.
The above experiment was carried out twice and the mean averages were calculated. For comparison with the control, each value was converted to a ratio to the control value set as 1. […] In FIG. 1, the abscissa designates the concentration (log M) of each purine base (AMP-2Na, adenosine, inosine), and the ordinate designates the ratio of cellular 2-deoxyglucose uptake amount (H-DPM (μg)/μg protein) relative to the control set as 1.

Structure (SMILES) | action of promoting epidermal keratinocytic glucose uptake (qualitative) | promotion of glucose uptake relative to control (ratio, control = 1) (10^-5 M, first experiment) | promotion of glucose uptake relative to control (ratio, control = 1) (10^-5 M, second experiment) | promotion of glucose uptake relative to control (ratio, control = 1) (10^-6 M, first experiment) | promotion effect relative to that of adenosine at the same concentration (10^-6 M, first experiment) | promotion of glucose uptake relative to control (ratio, control = 1) (10^-6 M, second experiment) | promotion effect relative to that of adenosine at the same concentration (10^-6 M, second experiment) | glucose uptake promotion compared with inosine (qualitative) (low concentration (10^-7 M))
OC[C@H]1O[C@@H](n2cnc3c(O)ncnc32)[C@H](O)[C@@H]1O [inosine] | have the action of promoting epidermal keratinocytic glucose uptake |  |  |  |  |  |  | 
Nc1ncnc2c1ncn2[C@@H]1O[C@H](CO)[C@@H](O)[C@H]1O [adenosine] | have the action of promoting epidermal keratinocytic glucose uptake |  |  |  |  |  |  | 
Nc1ncnc2c1ncn2[C@@H]1O[C@H](COP(=O)([O-])[O-])[C@@H](O)[C@H]1O.[Na+].[Na+] [AMP-2Na, adenosine 5′-phosphate-2Na] |  | about 1.61 times | about 1.43 times | about 1.48 times | about 1.16 times | about 1.48 times | about 1.32 times | promotes glucose uptake more effectively than inosine
